Test results from patent US20020025940A1, “Methods and compositions for sensitive and rapid, functional identification of genomic polynucleotides and use for cellular assays in drug discovery” (Aurora Biosciences Corporation, priority 1997, published 2002).

Columns and labels:
[1] = tested on: induced BLEC Jurkat clones; experiment: Characterization of induced BLEC Jurkat clones, change in 460/530 ratio; type: cell-based, human; conditions: PHA 10 microgram/ml, Thaps 1 microM, PMA 8 nM, Anti-CD3 2 microgram/ml
Description: These clones represent cells in which the trapping construct had integrated into a gene up regulated by PHA (T-cell) activation. Thus, these cells report the transcriptional activation of a gene upon cellular activation. Individual clones were identified and isolated by FACS using CCF2/AM to detect beta-lactamase activity. This clone isolation method, the induced sorting paradigm, used three sequential and independent stimulation and sorting protocols. […] These control cells were all green.
These isolated clones were expanded and tested for PHA inducibility by microscopic inspection with and without PHA stimulation in the presence of CCF2/AM. A total of fifty-five PHA inducible clones were identified using this procedure. The PHA inducibility for these clones ranged from a 1.5 to 40 fold change in the 460/530 ratio as compared to unstimulated control cells. Genomic Southern analysis using a DNA probe encoding beta-lactamase established that these clones represented 34 independent stable vector integration events. A list of clones obtained by the methods of the present invention and their characteristics is provided below in Table 6 and Table 7.
In addition to PHA inducible clones, Phobol 12-myristate 13-acetate (PMA) (Calbiochem), Thapsigargin (Thaps) (Calbiochem), and PMA+Thaps inducible clones were isolated using the general procedure set forth above using the indicated inducer rather than PHA. PMA is a specific activator of PKC (protein kinase C) and Thaps is a specific activator of intracellular calcium ion release (Thaps). These clones were isolated using three rounds of FACS using the general procedures described for the PHA inducible clones in Example 5. In such instances, other stimulants were substituted for PHA. PMA was provided at 8 nM, Thaps was provided at 1 microM. When these two stimulants were combined, their concentration was not changed. […] By using varied selection conditions, it is possible to isolate functionally distinct clones downstream of the desired signaling target.
Table 7 and Table 8 provide data similar to that provided in Table 5 for all of the clones obtained by the methods of Examples 5 to 7.

[2] = tested on: clone C2 (3×NFAT response element linked to beta-lactamase, M1 muscurinic receptor); experiment: Relative beta-lactamase activity of control clone C2; type: cell-based, human; conditions: PMA 8 nM, Thaps 1 microM, CsA 100 nM, PHA 10 microgram/ml
Description: (§1) Isolated clones from PHA-induced (Example 6) and PHA-repressed (Example 7) procedures described above were characterized to determine the specificity of their modulation and time required for induction or repression. Clones were stimulated with multiple activators or inhibitors over a one to twenty-four hour time interval.
(§2) In this study, PMA, which is a PKC activator, Thapsigargin which increases intracellular calcium, PHA which activates the T-cell receptor pathway, and cyclosporin A which is a clinically approved immunosuppressant that inhibits the Ca^2+ dependent phosphates calcineurin were investigated for their ability to modulate beta-lactamase expression in PHA induced and repressed BLEC clones.

J389PT14/pcDNA3 = experiment: Beta-lactamase expression in control cell line J389PTI4/pcDNA3; type: cell-based, human; conditions: 30 μM Carbachol, 10 nM PHA, 6 hours, unstimulated = 1
Experimental: (§3) For example, a calcium-sensitive clone was transfected with a Gq-type GPCR by electroporation. Cells from clone J389PT14 were transfected by electroporation with a plasmid (pcDNA3 (Invitrogen) or pcDNA3-M1 (pcDNA3 that can operably express M1 receptor) to make cell lines J389PTI4/pcDNA3 and J389PTI4/pcDNA3-Ml). […] Thus, the J389PTI4/pcDNA3 cell is a control cell. […] These cells were contacted with CCF-2 dye for another 90 minutes. The 460/530 ratio changes were measured in a Cytoflour (Series 4000 Model) (Perceptive Biosystems) fluorescence plate reader and correspond to reporter gene expression.

M1 receptor = molecular target: T1, M1 receptor (Homo sapiens, UniProt P11229); type: cell-based; conditions: cell line J389PT14/pcDNA3-M1; 30 μM Carbachol, 10 nM PHA; 6 hours; unstimulated = 1
T1 construct: expressed in transfected cells; host or cells: Jurkat-derived BLEC clone J389PT14, transiently transfected by electroporation with pcDNA3-M1
Experimental: as §3

BLEC Jurkat clones = experiment: Specificity of activated BLEC Jurkat clones, relative beta-lactamase activity; type: cell-based, human; conditions: PMA 8 nM, Thaps 1 microM, CsA 100 nM, PHA 10 microgram/ml
Description: as §1, §2

T1 sequence (P11229 whole entry): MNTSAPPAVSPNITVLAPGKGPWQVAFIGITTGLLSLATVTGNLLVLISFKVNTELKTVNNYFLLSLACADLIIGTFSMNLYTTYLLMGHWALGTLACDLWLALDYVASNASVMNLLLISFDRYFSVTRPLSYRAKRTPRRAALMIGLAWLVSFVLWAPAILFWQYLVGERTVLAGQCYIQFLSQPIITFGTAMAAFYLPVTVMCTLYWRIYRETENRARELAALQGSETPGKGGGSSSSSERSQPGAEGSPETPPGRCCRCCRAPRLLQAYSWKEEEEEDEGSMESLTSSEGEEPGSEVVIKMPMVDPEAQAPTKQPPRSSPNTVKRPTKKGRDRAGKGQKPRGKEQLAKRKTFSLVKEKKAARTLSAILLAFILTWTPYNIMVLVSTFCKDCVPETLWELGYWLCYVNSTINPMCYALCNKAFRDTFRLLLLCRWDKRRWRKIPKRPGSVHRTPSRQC

phytohemaglutinin [PHA]
Change in 460/530 ratio in the indicated clone by the following activator ([1]; clone J83PI1): 3-4 | Change in 460/530 ratio in the indicated clone by the following activator ([1]; clone J83PI2): 8 | Change in 460/530 ratio in the indicated clone by the following activator ([1]; clone J83PI3): 5-6 | Change in 460/530 ratio in the indicated clone by the following activator ([1]; clone J83PI4): 34 | Change in 460/530 ratio in the indicated clone by the following activator ([1]; clone J83PI6): 6-7 | Change in 460/530 ratio in the indicated clone by the following activator ([1]; clone J83PI7): 2 | Change in 460/530 ratio in the indicated clone by the following activator ([1]; clone J83PI8): 4-5 | Change in 460/530 ratio in the indicated clone by the following activator ([1]; clone J83PI9): 6 | Change in 460/530 ratio in the indicated clone by the following activator ([1]; clone J83PI13): 2-3 | Change in 460/530 ratio in the indicated clone by the following activator ([1]; clone J83PI14): 2 | Change in 460/530 ratio in the indicated clone by the following activator ([1]; clone J83PI15): 3-4 | Change in 460/530 ratio in the indicated clone by the following activator ([1]; clone J83PI16): 3-4 | Change in 460/530 ratio in the indicated clone by the following activator ([1]; clone J83PI18): 5-6 | Change in 460/530 ratio in the indicated clone by the following activator ([1]; clone J83PI19): 5-6 | Change in 460/530 ratio in the indicated clone by the following activator ([1]; clone J97PI1): 3-4 | Change in 460/530 ratio in the indicated clone by the following activator ([1]; clone J97PI2): 2-3 | Change in 460/530 ratio in the indicated clone by the following activator ([1]; clone J97PI3): 1-2 | Change in 460/530 ratio in the indicated clone by the following activator ([1]; clone J97PI4): 1-2 | Change in 460/530 ratio in the indicated clone by the following activator ([1]; clone J97PI6): 3-4 | Change in 460/530 ratio in the indicated clone by the following activator ([1]; clone J97PI7): 3-4 | Change in 460/530 ratio in the indicated clone by the following activator ([1]; clone J97PI8): 2.5-3 | Change in 460/530 ratio in the indicated clone by the following activator ([1]; clone J97PI9): 2-3 | Change in 460/530 ratio in the indicated clone by the following activator ([1]; clone J97PI10): 3-4 | Change in 460/530 ratio in the indicated clone by the following activator ([1]; clone J97PI11): 3-4 | Change in 460/530 ratio in the indicated clone by the following activator ([1]; clone J97PI12): 3-4 | Change in 460/530 ratio in the indicated clone by the following activator ([1]; clone J97PI13): 2-3 | Change in 460/530 ratio in the indicated clone by the following activator ([1]; clone J97PI14): 4-5 | Change in 460/530 ratio in the indicated clone by the following activator ([1]; clone J97PI15): 1-2 | Change in 460/530 ratio in the indicated clone by the following activator ([1]; clone J97PI17): 4-5 | Change in 460/530 ratio in the indicated clone by the following activator ([1]; clone J97PI18): 1-2 | Change in 460/530 ratio in the indicated clone by the following activator ([1]; clone J97PI19): 2-3 | Change in 460/530 ratio in the indicated clone by the following activator ([1]; clone J97PI20): 1-2 | Change in 460/530 ratio in the indicated clone by the following activator ([1]; clone J97PI21): 2-3 | Change in 460/530 ratio in the indicated clone by the following activator ([1]; clone J97PI22): 5-6 | Change in 460/530 ratio in the indicated clone by the following activator ([1]; clone J97PI23): 4-5 | Change in 460/530 ratio in the indicated clone by the following activator ([1]; clone J97PI24): 3-4 | Change in 460/530 ratio in the indicated clone by the following activator ([1]; clone J97PI116): 2-3 | Change in 460/530 ratio in the indicated clone by the following activator ([1]; clone J325B5): 7 | Change in 460/530 ratio in the indicated clone by the following activator ([1]; clone J325B11): 9 | Change in 460/530 ratio in the indicated clone by the following activator ([1]; clone J325E1): 8 | Change in 460/530 ratio in the indicated clone by the following activator ([1]; clone J325E3): 7 | Change in 460/530 ratio in the indicated clone by the following activator ([1]; clone J325E6): 11 | Change in 460/530 ratio in the indicated clone by the following activator ([1]; clone J325G4): 3-4 | Change in 460/530 ratio in the indicated clone by the following activator ([1]; clone J326C9): 4-5 | Change in 460/530 ratio in the indicated clone by the following activator ([1]; clone J326D4): 10 | Change in 460/530 ratio in the indicated clone by the following activator ([1]; clone J326D7): 10 | Change in 460/530 ratio in the indicated clone by the following activator ([1]; clone J326F7): 10 | Change in 460/530 ratio in the indicated clone by the following activator ([1]; clone J326H4): 10 | Change in 460/530 ratio in the indicated clone by the following activator ([1]; clone J389PM2): 4-5 | Change in 460/530 ratio in the indicated clone by the following activator ([1]; clone J389PM3): 3 | Change in 460/530 ratio in the indicated clone by the following activator ([1]; clone J389PM5): 4-5 | Change in 460/530 ratio in the indicated clone by the following activator ([1]; clone J389PM7): 1-2 | Change in 460/530 ratio in the indicated clone by the following activator ([1]; clone J389PM8): 2-3 | Change in 460/530 ratio in the indicated clone by the following activator ([1]; clone J389PT4): 15 | Change in 460/530 ratio in the indicated clone by the following activator ([1]; clone J389PTt): 5-6 | Change in 460/530 ratio in the indicated clone by the following activator ([1]; clone J389TI1): 1-2 | Change in 460/530 ratio in the indicated clone by the following activator ([1]; clone J389TI4): 0 | Relative Beta-Lactamase Activity of the Clone by the Indicated Stimulus After 24 hours (% of maximum activated stimuli) [2]: 30% | Relative expression of beta-lactamase in cells exposed to the indicated stimuli (J389PT14/pcDNA3): 12 | Relative expression of beta-lactamase in cells exposed to the indicated stimuli (M1 receptor): 13 | Relative Beta-Lactamase Activity of the Clone by the Indicated Stimulus After 24 hours (% of maximum activated stimuli) (BLEC Jurkat clones; clone J32-6D4): 80% | Relative Beta-Lactamase Activity of the Clone by the Indicated Stimulus After 24 hours (% of maximum activated stimuli) (BLEC Jurkat clones; clone J83 97-PPTR2 (repressed paradigm)): 67% | Relative Beta-Lactamase Activity of the Clone by the Indicated Stimulus After 24 hours (% of maximum activated stimuli) (BLEC Jurkat clones; clone J83-PI9): 60% | Relative Beta-Lactamase Activity of the Clone by the Indicated Stimulus After 24 hours (% of maximum activated stimuli) (BLEC Jurkat clones; clone J83-PTI8): 60% | Relative Beta-Lactamase Activity of the Clone by the Indicated Stimulus After 24 hours (% of maximum activated stimuli) (BLEC Jurkat clones; clone J389-PTI4): 85%
